Patent US5093359A, “Primycin components and process for the separation of the antibiotic complex” (priority 1984, dated 1992)
Values after ≈ are worked out from the molar mass of the structure shown. Like-named read-outs stand apart in the source and are kept apart here.

Experiments:
[1] = test system: Staphylococcus aureus CCM.885.; test: MIC, strain 1; type: cell-based; details: read-out: MIC
[2] = test system: Staphylococcus aureus DSM.20231; test: MIC, strain 2; type: cell-based; details: Staphylococcus aureus, DSM.20231, 24 h, strain 2, Table O, 24 hours; read-out: MIC
[3] = test system: Staphylococcus aureus CCM.2317.; test: MIC, strain 3; type: cell-based; details: read-out: MIC
[4] = test system: Staphylococcus aureus CCM.2326.; test: MIC, strain 4; type: cell-based; details: read-out: MIC
[5] = test system: Staphylococcus aureus CCM.2514; test: MIC, strain 5; type: cell-based; details: read-out: MIC
[6] = test system: Staphylococcus aureus CCM.2515.; test: MIC, strain 6; type: cell-based; details: read-out: MIC
[7] = test system: Staphylococcus epidermidis CCM.2271; test: MIC, strain 7; type: cell-based; details: read-out: MIC
[8] = test system: Staphylococcus aureus Smith; test: MIC, strain 8; type: cell-based; details: read-out: MIC
[9] = test system: Streptococcus faecalis CCM.1875.; test: MIC, strain 9; type: cell-based; details: Enterococcus faecalis, read-out: MIC
[10] = test system: Streptococcus agalactiae CCM.5153.; test: MIC, strain 10; type: cell-based; details: read-out: MIC
[11] = test system: Streptococcus agalactiae CCM.5534.; test: MIC, strain 11; type: cell-based; details: Streptococcus agalactiae, CCM.5534., read-out: MIC
[12] = test system: Streptococcus disgalactiae ATTC.9926; test: MIC, strain 12; type: cell-based; details: ATTC.9926, 24 h, strain 12, Table O, 24 hours
[13] = test system: Bacillus subtilis ATTC.6633.; test: MIC, strain 13; type: cell-based; details: 24 h, strain 13, Table O, 24 hours, read-out: MIC
[14] = test system: Bacillus cereus CCM.2010.; test: MIC, strain 14; type: cell-based; details: 24 h, strain 14, Table O, 24 hours, read-out: MIC
[15] = test system: Bacillus licheniformis CCM.2182.; test: MIC, strain 15; type: cell-based; details: read-out: MIC
[16] = test system: Bacillus licheniformis CCM.2205.; test: MIC, strain 16; type: cell-based; details: read-out: MIC
[17] = test system: Bacillus subtilis CCM.1718.; test: MIC, strain 17; type: cell-based; details: read-out: MIC
[18] = test system: Listeria monocytogenes CCM.5576.; test: MIC, strain 18; type: cell-based; details: read-out: MIC
[19] = test system: Micrococcus flavus ATCC.10240.; test: MIC, strain 19; type: cell-based; details: read-out: MIC
[20] = test system: Micrococcus luteus DSM.20030.; test: MIC, strain 20; type: cell-based; details: read-out: MIC
[21] = test system: Sporosarcina ureae DSM.317; test: MIC, strain 21; details: DSM.317, 24 h
Protocol: (§1) The antimicrobial activity of the primycin complex and the components thereof is tested on different microorganism strains.
(§2) (Inoculation: 5 × 10^5 /ml, incubation at 37 C.° for

[22] = test system: Pseudomonas aeruginosa CCM.1960.; test: MIC, strain 22; details: 24 h
Protocol: as §1, §2

[23] = test system: Pseudomonas fluorescens CCM.2115.; test: MIC, strain 23; details: 24 h
Protocol: as §1, §2

[24] = test system: Pseudomonas acidoverans CCM.283; test: MIC, strain 24; details: CCM.283, 24 h
Protocol: as §1, §2

[25] = test system: Proteus vulgaris CCM.1799.; test: MIC, strain 25; details: 24 h
Protocol: as §1, §2

[26] = test system: Shigella sonnei CCM.1373.; test: MIC, strain 26; details: 24 h
Protocol: (§3) The table contains the MIC values (/μg/ml) measured on human pathogenic polyresistant strains.
as §1, §2

[27] = test system: Salmonella typhimurium CCM.5445.; test: MIC, strain 27; details: Salmonella enterica, 24 h
Protocol: as §3, §1, §2

[28] = test system: Escherichia coli DSM.30038.; test: MIC, strain 28; details: 24 h
Protocol: as §3, §1, §2

Work on `CCCCC1C(=O)OC(C(C)C(O)CCCNC(=N)N)C(C)C=C(C)CCCCC(O)CC(O)CC(O)CC(O)CC(O)CC=C(C)C(O)CCCC(O)CCCC(O)CCC(C)C1O` (centres unmarked) [B1, hydropricin] yielded an MIC ([1]; strain 1, Table O, 24 hours) of 0.5 µg/mL (≈ 0.537 µM), an MIC ([1]; strain 1, Tables I-XIII, 25 hours) of 0.5 µg/mL (≈ 0.537 µM) and an MIC [2] of 0.1 µg/mL (≈ 0.107 µM). For the same compound, the MIC ([3]; strain 3, Table O, 24 hours) was 0.1 µg/mL (≈ 0.107 µM), the MIC ([3]; strain 3, Tables I-XIII, 25 hours) was 0.1 µg/mL (≈ 0.107 µM) and the MIC ([4]; strain 4, Table O, 24 hours) was 0.25 µg/mL (≈ 0.269 µM). For the same compound, the MIC ([4]; strain 4, Tables I-XIII, 25 hours) was 0.25 µg/mL (≈ 0.269 µM), the MIC ([5]; CCM.2514, strain 5, Table O, 24 hours) was 0.1 µg/mL (≈ 0.107 µM) and the MIC ([5]; CCM.2514, strain 5, Tables I-XIII, 25 hours) was 0.1 µg/mL (≈ 0.107 µM). The MIC ([6]; strain 6, Table O, 24 hours) was 0.1 µg/mL (≈ 0.107 µM), the MIC ([6]; strain 6, Tables I-XIII, 25 hours) was 0.1 µg/mL (≈ 0.107 µM) and the MIC ([7]; CCM.2271, strain 7, Table O, 24 hours) was 0.25 µg/mL (≈ 0.269 µM). For the same compound, the MIC ([7]; CCM.2271, strain 7, Tables I-XIII, 25 hours) was 0.25 µg/mL (≈ 0.269 µM), the MIC ([8]; strain 8, Table O, 24 hours) was 0.5 µg/mL (≈ 0.537 µM) and the MIC ([8]; strain 8, Tables I-XIII, 25 hours) was 0.5 µg/mL (≈ 0.537 µM). For the same compound, the MIC ([9]; strain 9, Table O, 24 hours) was 2.5 µg/mL (≈ 2.69 µM), the MIC ([9]; strain 9, Tables I-XIII, 25 hours) was 2.5 µg/mL (≈ 2.69 µM) and the MIC ([10]; strain 10, Table O, 24 hours) was 0.5 µg/mL (≈ 0.537 µM). The MIC ([10]; strain 10, Tables I-XIII, 25 hours) was 0.5 µg/mL (≈ 0.537 µM), the MIC ([11]; 24 h, strain 11, Table O, 24 hours) was 1 µg/mL (≈ 1.07 µM) and the MIC ([11]; 25 h, strain 11, Tables I-XIII, 25 hours) was 1 µg/mL (≈ 1.07 µM). The MIC [12] was 2.5 µg/mL (≈ 2.69 µM), the MIC [13] was 0.1 µg/mL (≈ 0.107 µM) and the MIC [14] was 0.25 µg/mL (≈ 0.269 µM). It also gave an MIC ([15]; strain 15, Table O, 24 hours) of 0.25 µg/mL (≈ 0.269 µM), an MIC ([15]; strain 15, Tables I-XIII, 25 hours) of 0.25 µg/mL (≈ 0.269 µM) and an MIC ([16]; strain 16, Table O, 24 hours) of 0.25 µg/mL (≈ 0.269 µM). The MIC ([16]; strain 16, Tables I-XIII, 25 hours) was 0.25 µg/mL (≈ 0.269 µM), the MIC ([17]; 24 h, strain 17, Table O, 24 hours) was 0.25 µg/mL (≈ 0.269 µM) and the MIC ([17]; 25 h, strain 17, Tables I-XIII, 25 hours) was 0.25 µg/mL (≈ 0.269 µM). For the same compound, the MIC ([18]; strain 18, Table O, 24 hours) was 0.25 µg/mL (≈ 0.269 µM), the MIC ([18]; strain 18, Tables I-XIII, 25 hours) was 0.25 µg/mL (≈ 0.269 µM) and the MIC ([19]; strain 19, Table O, 24 hours) was 0.05 µg/mL (≈ 0.0537 µM). The MIC ([19]; strain 19, Tables I-XIII, 25 hours) was 0.05 µg/mL (≈ 0.0537 µM), the MIC ([20]; strain 20, Table O, 24 hours) was 0.075 µg/mL (≈ 0.0806 µM) and the MIC ([20]; strain 20, Tables I-XIII, 25 hours) was 0.075 µg/mL (≈ 0.0806 µM). For the same compound, the MIC [21] was 0.025 µg/mL (≈ 0.0269 µM), the MIC [22] was 25 µg/mL (≈ 26.9 µM) and the MIC [23] was 25 µg/mL (≈ 26.9 µM). It also gave an MIC [24] of 25 µg/mL (≈ 26.9 µM), an MIC [25] of 50 µg/mL (≈ 53.7 µM) and an MIC [26] of 50 µg/mL (≈ 53.7 µM). The MIC [27] was 50 µg/mL (≈ 53.7 µM) and the MIC [28] was 50 µg/mL (≈ 53.7 µM).
